In PubChem BioAssay AID1918991 (Molecular Pharmacology Branch, DTP, NCI, 2023):
Several values for one entry are separate records, joined by “and”; a condition that tells them apart may be missing. Equal values may be shown once.

Test system: 186277-243-T-J2-PDC complex spheroid growth
Test: Anticancer human tumor 186277-243-T-J2-PDC patient-derived colon adenocarcinoma cell line growth inhibition [AhR]
Details: for viability, T/C: stronger effect = lower value
Method in brief: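 Complex tumor spheroids co-cultured with HUVEC and human MSC stroma; AhR antagonists tested in combination with standard-of-care and investigational agents. Top concentration at or near clinical Cmax (else 10 microM), half-log dilutions; growth expressed as percent test/control.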

[1] = curve of first compound, second compound 0.1 µM
[2] = curve of first compound, second compound 0.316 µM
[3] = curve of first compound, second compound 1 µM
[4] = curve of first compound, second compound 3.16 µM
[5] = curve of first compound, second compound 10 µM
[6] = second compound 0.1 µM, first compound 0.0316 µM
[7] = second compound 0.1 µM, first compound 0.1 µM
[8] = second compound 0.1 µM, first compound 0.316 µM
[9] = second compound 0.1 µM, first compound 1 µM
[10] = second compound 0.1 µM, first compound 3.16 µM
[11] = second compound 0.1 µM, first compound 10 µM
[12] = second compound 0.316 µM, first compound 0.0316 µM
[13] = second compound 0.316 µM, first compound 0.1 µM
[14] = second compound 0.316 µM, first compound 0.316 µM
[15] = second compound 0.316 µM, first compound 1 µM
[16] = second compound 0.316 µM, first compound 3.16 µM
[17] = second compound 0.316 µM, first compound 10 µM
[18] = second compound 1 µM, first compound 0.0316 µM
[19] = second compound 1 µM, first compound 0.1 µM
[20] = second compound 1 µM, first compound 0.316 µM
[21] = second compound 1 µM, first compound 1 µM
[22] = second compound 1 µM, first compound 3.16 µM
[23] = second compound 1 µM, first compound 10 µM
[24] = second compound 3.16 µM, first compound 0.0316 µM
[25] = second compound 3.16 µM, first compound 0.1 µM
[26] = second compound 3.16 µM, first compound 0.316 µM
[27] = second compound 3.16 µM, first compound 1 µM
[28] = second compound 3.16 µM, first compound 3.16 µM
[29] = second compound 3.16 µM, first compound 10 µM
[30] = second compound 10 µM, first compound 0.0316 µM
[31] = second compound 10 µM, first compound 0.1 µM
[32] = second compound 10 µM, first compound 0.316 µM
[33] = second compound 10 µM, first compound 1 µM
[34] = second compound 10 µM, first compound 3.16 µM
[35] = second compound 10 µM, first compound 10 µM
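Note: spheroids exposed to compounds for seven days before the viability read.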
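Throughout, for viability, T/C: luminescent signal used as a stand-in for viable cell amount; 100% = DMSO vehicle control wells.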

Row | Structure (SMILES) | IC50 [1] | IC50 [2] | IC50 [3] | IC50 [4] | IC50 [5] | viability, T/C [6] | viability, T/C [7] | viability, T/C [8] | viability, T/C [9] | viability, T/C [12] | viability, T/C [13] | viability, T/C [14] | viability, T/C [15] | viability, T/C [18] | viability, T/C [19] | viability, T/C [20] | viability, T/C [21] | viability, T/C [24] | viability, T/C [25] | viability, T/C [26] | other results
1 | CC1(C)CCC(CN2CCN(c3ccc(C(=O)NS(=O)(=O)c4ccc(NCC5CCOCC5)c([N+](=O)[O-])c4)c(Oc4cnc5[nH]ccc5c4)c3)CC2)=C(c2ccc(Cl)cc2)C1 + CC(CO)NC(=O)c1cc(-c2ccc(Cl)cc2)nn(-c2cnn(C)c2)c1=O | 5.42 µM | 5.94 µM | 5.71 µM | 5.56 µM | 4.82 µM | 99.3% | 113% | 102% | 101% | 108% | 94.8% | 96.7% | 94.2% | 112% | 98.4% | 109% | 95.8% | 95.2% | 85.8% | 83.1% | viability, T/C [10]: 84.8%; viability, T/C [11]: 10.5%; viability, T/C [16]: 96.2%; viability, T/C [17]: 11.8%; viability, T/C [22]: 92.1%; viability, T/C [23]: 10.1%; viability, T/C [27]: 94.2%; viability, T/C [28]: 88.1%; viability, T/C [29]: 10.2%; viability, T/C [30]: 77.5%; viability, T/C [31]: 96.7%; viability, T/C [32]: 83.9%; viability, T/C [33]: 78.7%; viability, T/C [34]: 74.4%; viability, T/C [35]: 9.34%
2 | CC1COCCN1c1cc(-c2ccnn2C)c2ccnc(-c3ccn[nH]3)c2n1 (stereo unspecified) + Cc1ccccc1N=Nc1ccc(NC(=O)c2ccnn2C)c(C)c1 | 0.0818 µM | 0.0845 µM | 0.0888 µM | 0.0752 µM | 0.0636 µM | 96.7% | 40.1% | 10.2% | 8.07% | 93.9% | 42.4% | 9.54% | 7.22% | 100% | 44.1% | 9.5% | 7.1% | 92.6% | 35.9% | 9.1% | viability, T/C (second compound 0.1 µM, first compound 0.00316 µM): 99.9%; viability, T/C (second compound 0.1 µM, first compound 0.01 µM): 105%; viability, T/C (second compound 0.316 µM, first compound 0.00316 µM): 97.5%; viability, T/C (second compound 0.316 µM, first compound 0.01 µM): 102%; viability, T/C (second compound 1 µM, first compound 0.00316 µM): 98.8%; viability, T/C (second compound 1 µM, first compound 0.01 µM): 106%; viability, T/C (second compound 3.16 µM, first compound 0.00316 µM): 97.7%; viability, T/C (second compound 3.16 µM, first compound 0.01 µM): 104%; viability, T/C [27]: 7.15%; viability, T/C (second compound 10 µM, first compound 0.00316 µM): 77%; viability, T/C (second compound 10 µM, first compound 0.01 µM): 91.9%; viability, T/C [30]: 74.3%; viability, T/C [31]: 33.7%; viability, T/C [32]: 10.4%; viability, T/C [33]: 7.02%
3 | CC1(C)CCC(CN2CCN(c3ccc(C(=O)NS(=O)(=O)c4ccc(NCC5CCOCC5)c([N+](=O)[O-])c4)c(Oc4cnc5[nH]ccc5c4)c3)CC2)=C(c2ccc(Cl)cc2)C1 | – | – | – | – | – | – | – | – | – | – | – | – | – | – | – | – | – | – | – | – | viability, T/C (compound 0.0316 µM): 97.4% and 103% and 99.8%; viability, T/C (compound 0.1 µM): 99.3% and 105% and 95.2%; viability, T/C (compound 0.316 µM): 93.9% and 119% and 92.1%; viability, T/C (compound 1 µM): 98.4% and 99.1% and 101%; viability, T/C (compound 3.16 µM): 85.5% and 109% and 84.2%; IC50 (curve of compound): > 10 µM and 7.52 µM and 5.33 µM
4 | NS(=O)(=O)OCC1CC(n2ccc3c(NC4CCc5ccccc54)ncnc32)CC1O (stereo unspecified) + CC(CO)NC(=O)c1cc(-c2ccc(Cl)cc2)nn(-c2cnn(C)c2)c1=O | 0.205 µM | 0.193 µM | 0.15 µM | 0.139 µM | 0.11 µM | 102% | 76.7% | 33.5% | 11% | 91.8% | 76.7% | 29.4% | 10.7% | 89.9% | 65.1% | 22.1% | 8.96% | 78.3% | 61.1% | 22.9% | viability, T/C [10]: 4.62%; viability, T/C [11]: 1.34%; viability, T/C [16]: 3.18%; viability, T/C [17]: 0.98%; viability, T/C [22]: 3.1%; viability, T/C [23]: 1.27%; viability, T/C [27]: 7.89%; viability, T/C [28]: 2.24%; viability, T/C [29]: 1.06%; viability, T/C [30]: 63.5%; viability, T/C [31]: 53.2%; viability, T/C [32]: 22%; viability, T/C [33]: 8.3%; viability, T/C [34]: 2.58%; viability, T/C [35]: 1.14%
5 | O=C(c1cc(Cc2n[nH]c(=O)c3ccccc23)ccc1F)N1CCN(C(=O)C2CC2)CC1 + CC(CO)NC(=O)c1cc(-c2ccc(Cl)cc2)nn(-c2cnn(C)c2)c1=O | 6.18 µM | 6.46 µM | 8.51 µM | 7.34 µM | 4.64 µM | 99.2% | 108% | 102% | 90.3% | 96.3% | 97.2% | 100% | 88.5% | 104% | 95.3% | 98% | 93.7% | 98.1% | 93.2% | 87.9% | viability, T/C [10]: 69.9%; viability, T/C [11]: 36.1%; viability, T/C [16]: 74.9%; viability, T/C [17]: 35.1%; viability, T/C [22]: 71.6%; viability, T/C [23]: 46.5%; viability, T/C [27]: 90.9%; viability, T/C [28]: 71.9%; viability, T/C [29]: 41.7%; viability, T/C [30]: 80%; viability, T/C [31]: 86.3%; viability, T/C [32]: 88.5%; viability, T/C [33]: 69.2%; viability, T/C [34]: 58.4%; viability, T/C [35]: 36.5%
